Patent US20220073525A1, “COMPOSITIONS FOR INHIBITING UBIQUITIN SPECIFIC PROTEASE 1” (FORMA Therapeutics, Inc., priority 2019, published 2022)
Read-outs that look alike come from different tables or passages of the source.

Molecular target: USP1 (Homo sapiens, UniProt O94782)
Experiment: Biochemical Assay for USP1 Inhibition (Ub-Rho 110 fluorescence)
Conditions: 30 min preincubation, Enzyme 0.025 nM, Substrate Ub-Rho 110 25 nM
Procedure: The assay was performed in a final volume of 6 μL in assay buffer containing 20 mM Tris-HCl pH 8.0, (1 M Tris-HCl, pH 8.0 solution; Corning 46-031-CM), 1 mM GSH (L-glutathione reduced, Sigma-Aldrich, G4251-100G), 0.03% BGG (0.22 μM filtered, Sigma, G7516-25G), and 0.01% Triton X-100 (Sigma, T9284-10L). Nanoliter quantities of 10-point, 3-fold serial dilution in DMSO were pre-dispensed into 1536 assay plates (Corning, #3724BC) for a final test concentration of 25 μM to 1.3 nM, top to lowest dose, respectively. Concentration and incubation times were optimized for the maximal signal-to-background while maintaining initial velocity conditions at a fixed substrate concentration (<<Km). 3 μL of 2× Enzyme was added to assay plates (pre-stamped with compound), preincubated for 30 min, and then treated with 3 μL of 2× Substrate (Ub-Rho 110, UbiQ-126). Final concentrations of Enzyme and Substrate are 0.025 nM and 25 nM, respectively. Plates were read using a kinetic protocol continuously for 11 min on the Envision (Perkin Elmer) or PheraSTAR (BMG), excitation at 485 nm and emission at 535 nm or excitation at 520 nm and emission at 590 nm. For all assay formats, data were reported as percent inhibition compared with control wells based on the following equation: % inh=100*([…]), where FLU=measured Fluorescence, AveLow=average Fluorescence of no enzyme control (n=32), and AveHigh=average Fluorescence of DMSO control (n=32). IC50 values were determined by curve fitting of the standard 4 parameter logistic fitting algorithm included in the Activity Base software package: TDBS XE Designer Model205. Data is fitted using the Levenburg Marquardt algorithm.
In Table 5, absolute stereochemistry has not been determined for some Compounds. Accordingly, assignment ofany Compounds as the “R” or “S” stereoisomer is arbitrary, unless otherwise noted. In some cases, Compounds are labeled with “1st eluting isomer”, “2nd eluting isomer”, etc. based on the purification method used to separate the stereoisomers.

[1] = Table 6, additional compounds, read-out: IC50

Sequence of USP1 (O94782 whole entry): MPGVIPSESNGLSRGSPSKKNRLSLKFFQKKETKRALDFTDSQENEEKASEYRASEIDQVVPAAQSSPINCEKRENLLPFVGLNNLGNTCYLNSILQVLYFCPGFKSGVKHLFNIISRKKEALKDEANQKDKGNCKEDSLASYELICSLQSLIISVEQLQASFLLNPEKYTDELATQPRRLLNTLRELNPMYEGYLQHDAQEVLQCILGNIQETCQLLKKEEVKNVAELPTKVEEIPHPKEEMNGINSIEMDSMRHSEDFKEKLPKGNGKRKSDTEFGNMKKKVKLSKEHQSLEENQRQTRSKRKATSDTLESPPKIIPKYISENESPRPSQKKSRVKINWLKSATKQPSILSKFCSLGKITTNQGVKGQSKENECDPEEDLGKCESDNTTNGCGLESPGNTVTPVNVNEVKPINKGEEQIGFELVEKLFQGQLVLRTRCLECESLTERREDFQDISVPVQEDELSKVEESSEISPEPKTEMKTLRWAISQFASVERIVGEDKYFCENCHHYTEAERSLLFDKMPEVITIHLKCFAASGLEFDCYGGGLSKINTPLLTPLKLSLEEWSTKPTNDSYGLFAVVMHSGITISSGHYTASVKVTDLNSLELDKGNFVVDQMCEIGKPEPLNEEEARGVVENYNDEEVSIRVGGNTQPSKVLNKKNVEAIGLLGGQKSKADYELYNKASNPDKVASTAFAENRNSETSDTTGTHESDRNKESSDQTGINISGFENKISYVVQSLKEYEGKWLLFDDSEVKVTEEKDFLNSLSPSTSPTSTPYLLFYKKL
Sequence of USP1 (Q8TAF3 whole entry partner): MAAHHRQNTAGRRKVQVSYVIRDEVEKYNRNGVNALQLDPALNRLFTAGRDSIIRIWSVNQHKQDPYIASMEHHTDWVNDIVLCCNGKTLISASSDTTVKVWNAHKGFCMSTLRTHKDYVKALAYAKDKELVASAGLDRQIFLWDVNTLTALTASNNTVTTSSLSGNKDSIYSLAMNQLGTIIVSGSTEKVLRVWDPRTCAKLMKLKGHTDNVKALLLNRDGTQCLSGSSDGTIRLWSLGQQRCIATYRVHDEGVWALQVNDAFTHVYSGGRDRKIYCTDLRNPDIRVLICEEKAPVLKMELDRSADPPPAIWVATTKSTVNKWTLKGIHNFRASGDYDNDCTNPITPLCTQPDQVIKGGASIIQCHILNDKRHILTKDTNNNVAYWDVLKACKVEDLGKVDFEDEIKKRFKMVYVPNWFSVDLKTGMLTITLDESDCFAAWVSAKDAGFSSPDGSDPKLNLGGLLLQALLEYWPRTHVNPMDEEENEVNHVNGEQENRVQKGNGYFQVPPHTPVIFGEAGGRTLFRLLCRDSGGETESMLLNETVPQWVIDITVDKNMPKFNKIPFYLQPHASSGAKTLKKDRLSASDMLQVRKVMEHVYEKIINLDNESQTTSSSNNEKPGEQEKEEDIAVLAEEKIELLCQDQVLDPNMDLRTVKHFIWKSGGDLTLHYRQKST

Row | Structure (SMILES) | IC50 (Table 5, read-out: IC50 (μm)) | IC50 [1]
1 | Cc1nc(-c2cccnc2C(C)C)c2n1CCN(c1ccc(C(=O)N(C)C)cc1F)C2 [Compound 49, 3-fluoro-N,N-dimethyl-4-{3-methyl-1-[2-(propan-2-yl)pyridin-3-yl]-5H,6H,7H,8H-imidazo[1,5-a]pyrazin-7-yl}benzamide] | 10 to 25 µM | –
2 | Cc1nc(-c2cccnc2C(C)C)c2n1CCN(c1ccc(C3CNC(=O)C3)cc1)C2 (stereo not drawn) [Compound 34, 4-(4-{3-methyl-1-[2-(propan-2-yl)pyridin-3-yl]-5H,6H,7H,8H-imidazo[1,5-a]pyrazin-7-yl}phenyl)pyrrolidin-2-one] | > 25 µM | –
3 | Cc1nc(-c2ccc(N3CCn4c(C)nc(-c5cccnc5C(C)C)c4C3)cc2)cn1C [Compound 45, 3-{7-[4-(1,2-dimethyl-1H-imidazol-4-yl)phenyl]-3-methyl-5H,6H,7H,8H-imidazo[1,5-a]pyrazin-1-yl}-2-(propan-2-yl)pyridine] | ≤ 1 µM | –
4 | Cc1nc(-c2ccccc2C(C)C)c2n1CCN(c1ccc(-c3nc(C(F)(F)F)cn3C)cc1)C2 [Compound 3, 1-methyl-2-(4-{3-methyl-1-[2-(propan-2-yl)phenyl]-5H,6H,7H,8H-imidazo[1,5-a]pyrazin-7-yl}phenyl)-4-(trifluoromethyl)-1H-imidazole] | ≤ 1 µM | –
5 | Cc1nc(-c2cccnc2C(C)C)c2n1C(C)CN(c1ccc(-c3nc(C(F)(F)F)cn3C)cc1)C2 (stereo not drawn) [Compound 56, 3-(3,5-dimethyl-7-{4-[1-methyl-4-(trifluoromethyl)-1H-imidazol-2-yl]phenyl}-5H,6H,7H,8H-imidazo[1,5-a]pyrazin-1-yl)-2-(propan-2-yl)pyridine] | ≤ 1 µM | –
6 | Cc1nc(-c2cccnc2C(C)C)c2n1CCN(c1cnccn1)C2 [Compound 11, 2-{3-methyl-1-[2-(propan-2-yl)pyridin-3-yl]-5H,6H,7H,8H-imidazo[1,5-a]pyrazin-7-yl}pyrazine] | > 25 µM | –
7 | CC(C)c1ncccc1-c1ncn2c1CN(c1ccc(-c3nc(C(F)(F)F)cn3C)cc1)CC2 [Compound 4, 3-(7-{4-[1-methyl-4-(trifluoromethyl)-1H-imidazol-2-yl]phenyl}-5H,6H,7H,8H-imidazo[1,5-a]pyrazin-1-yl)-2-(propan-2-yl)pyridine] | ≤ 1 µM | –
8 | Cc1nc(-c2cccnc2C(C)C)c2n1CCN(c1ccc(-c3nc(C(F)(F)F)cn3C3CN(C)C3)cc1)C2 [Compound 73, 3-(3-methyl-7-{4-[1-(1-methylazetidin-3-yl)-4-(trifluoromethyl)-1H-imidazol-2-yl]phenyl}-5H,6H,7H,8H-imidazo[1,5-a]pyrazin-1-yl)-2-(propan-2-yl)pyridine] | ≤ 1 µM | –
9 | Cc1cc(N2CCn3c(C)nc(-c4cccnc4C(C)C)c3C2)ccc1N1CCCC1=O [Compound 35, 1-(2-methyl-4-{3-methyl-1-[2-(propan-2-yl)pyridin-3-yl]-5H,6H,7H,8H-imidazo[1,5-a]pyrazin-7-yl}phenyl)pyrrolidin-2-one] | > 25 µM | –
10 | COCCn1cc(C(F)(F)F)nc1-c1ccc(N2CCn3c(C)nc(-c4cccnc4C(C)C)c3C2)cc1 [Compound 63, 3-(7-{4-[1-(2-methoxyethyl)-4-(trifluoromethyl)-1H-imidazol-2-yl]phenyl}-3-methyl-5H,6H,7H,8H-imidazo[1,5-a]pyrazin-1-yl)-2-(propan-2-yl)pyridine] | ≤ 1 µM | –
11 | Cc1nc(-c2cccnc2OCC(F)(F)F)c2n1CCN(c1ccc(-c3nc(C(F)(F)F)cn3C)cc1)C2 [Compound 16, 3-(3-methyl-7-{4-[1-methyl-4-(trifluoromethyl)-1H-imidazol-2-yl]phenyl}-5H,6H,7H,8H-imidazo[1,5-a)pyrazin-1-yl)-2-(2,2,2-trifluoroethoxy)pyridine] | ≤ 1 µM | –
12 | Cc1nc(-c2cccnc2C(C)C)c2n1CCN(c1cc(N3CCCCC3)ncn1)C2 [Compound 19, 4-{3-methyl-1-[2-(propan-2-yl)pyridin-3-yl]-5H,6H,7H,8H-imidazo[1,5-a]pyrazin-7-yl}-6-(piperidin-1-yl)pyrimidine] | 10 to 25 µM | –
13 | Cc1nc(-c2cccnc2C(C)C)c2n1CCN(C(=O)c1ccc(-c3ccnn3C(C)C)nc1)C2 [Compound C-6, 3-(3-methyl-7-{6-[1-(propan-2-yl)-1H-pyrazol-5-yl]pyridine-3-carbonyl}-5H,6H,7H,8H-imidazo[1,5-a]pyrazin-1-yl)-2-(propan-2-yl)pyridine] | – | > 25 µM
14 | Cc1nc(-c2cccnc2C(C)C)c2n1CCN(c1ccc(C3(O)COC3)cc1)C2 [Compound 46, 3-(4-{3-methyl-1-[2-(propan-2-yl)pyridin-3-yl]-5H,6H,7H,8H-imidazo[1,5-a]pyrazin-7-yl}phenyl)oxetan-3-ol] | > 25 µM | –
15 | Cc1cc(Cl)n(-c2ccc(N3CCn4c(C)nc(-c5cccnc5OC(F)F)c4C3)cc2)n1 [Compound 82, 3-{7-[4-(5-chloro-3-methyl-1H-pyrazol-1-yl)phenyl]-3-methyl-5H,6H,7H,8H-imidazo[1,5-a]pyrazin-1-yl}-2-(difluoromethoxy)pyridine] | ≤ 1 µM | –
16 | Cc1nc(-c2cccnc2C(C)C)c2n1CCN(c1ccc(NC(=O)C3CC3)cc1)C2 [Compound 59, N-(4-{3-methyl-1-[2-(propan-2-yl)pyridin-3-yl]-5H,6H,7H,8H-imidazo[1,5-a]pyrazin-7-yl}phenyl)cyclopropanecarboxamide] | 1 to 10 µM | –
17 | Cc1nc(-c2cccnc2C(C)C)c2n1CCN(c1ccc(-c3nc(CO)co3)cc1)C2 [Compound 64, [2-(4-{3-methyl-1-[2-(propan-2-yl)pyridin-3-yl]-5H,6H,7H,8H-imidazo[1,5-a]pyrazin-7-yl}phenyl)-1,3-oxazol-4-yl]methanol] | 10 to 25 µM | –
18 | Cc1nc(-c2cccnc2C(C)C)c2n1CCN(c1ccc(C3=CCON3)cc1)C2 [Compound 32, 3-{7-[4-(2,5-dihydro-1,2-oxazol-3-yl)phenyl]-3-methyl-5H,6H,7H,8H-imidazo[1,5-a]pyrazin-1-yl}-2-(propan-2-yl)pyridine] | 1 to 10 µM | –
19 | CNC(=O)c1ccc(N2CCn3c(C)nc(-c4cccnc4C(C)C)c3C2)c(F)c1 [Compound 48, 3-fluoro-N-methyl-4-{3-methyl-1-[2-(propan-2-yl)pyridin-3-yl]-5H,6H,7H,8H-imidazo[1,5-a]pyrazin-7-yl}benzamide] | > 25 µM | –
20 | Cc1nc(-c2cccnc2C(C)C)c2n1CCN(c1cccc(C(=O)N3CCC[C@H]3C)c1)C2 [Compound 61, 3-(3-methyl-7-{3-[(2R)-2-methylpyrrolidine-1-carbonyl]phenyl}-5H,6H,7H,8H-imidazo[1,5-a]pyrazin-1-yl)-2-(propan-2-yl)pyridine] | > 25 µM | –
21 | Cc1nc(-c2cccnc2C(C)C)c2n1CCN(c1ccc(-c3ncn(C)n3)cc1)C2 [Compound 66, 3-{3-methyl-7-[4-(1-methyl-1H-1,2,4-triazol-3-yl)phenyl]-5H,6H,7H,8H-imidazo[1,5-a]pyrazin-1-yl}-2-(propan-2-yl)pyridine] | 10 to 25 µM | –
22 | COc1nc(-c2cccnc2C(C)C)c2n1CCN(c1ccc(-c3nc(C(F)(F)F)cn3C)cc1)C2 [Compound 84, 3-(3-methoxy-7-{4-[1-methyl-4-(trifluoromethyl)-1H-imidazol-2-yl]phenyl}-5H,6H,7H,8H-imidazo[1,5-a]pyrazin-1-yl)-2-(propan-2-yl)pyridine] | ≤ 1 µM | –
23 | Cc1cnc(-c2ccc(N3CCn4c(C)nc(-c5cccnc5C(C)C)c4C3)cc2)o1 [Compound 65, 3-{3-methyl-7-[4-(5-methyl-1,3-oxazol-2-yl)phenyl]-5H,6H,7H,8H-imidazo[1,5-a]pyrazin-1-yl}-2-(propan-2-yl)pyridine] | ≤ 1 µM | –
24 | CNC(=O)c1ccc(N2CCn3c(C)nc(-c4cccnc4C(C)C)c3C2)cc1 [Compound 26, N-methyl-4-{3-methyl-1-[2-(propan-2-yl)pyridin-3-yl]-5H,6H,7H,8H-imidazo[1,5-a]pyrazin-7-yl}benzamide] | > 25 µM | –
25 | Cc1nc(-c2cccnc2C(C)C)c2n1CCN(c1ccc(-n3nccn3)cc1)C2 [Compound 67, 3-{3-methyl-7-[4-(2H-1,2,3-triazol-2-yl)phenyl]-5H,6H,7H,8H-imidazo[1,5-a]pyrazin-1-yl}-2-(propan-2-yl)pyridine] | 1 to 10 µM | –
26 | Cc1nc(-c2cccnc2C(C)C)c2n1CCCN(Cc1ccc(-c3nc(C(F)(F)F)cn3C)cc1)C2 [Compound C-2, 1-(2-isopropylpyridin-3-yl)-3-methyl-8-(4-(1-methyl-4-(trifluoromethyl)-1H-imidazol-2-yl)benzyl)-6,7,8,9-tetrahydro-5H-imidazo[1,5-a][1,4]diazepine] | – | 1 to 10 µM
27 | Cc1nc(-c2cccnc2C(C)C)c2n1CCN(c1ccc(C(=O)NCC3CC3)cc1)C2 [Compound 57, N-(cyclopropylmethyl)-4-{3-methyl-1-[2-(propan-2-yl)pyridin-3-yl]-5H,6H,7H,8H-imidazo[1,5-a]pyrazin-7-yl}benzamide] | > 25 µM | –
